Reference: patent US20150196033A1, “PESTICIDAL COMPOSITIONS AND PROCESSES RELATED THERETO” (priority 2012, published 2015)

Tests used:
Format in all cases: in vivo
[1] = system: Corn Earworm (CEW) (Helicoverpa zea); assay: Bioassay on Corn Earworm (CEW), 128-well diet tray assay; details: Helicoverpa zea, 168 h, second instar larvae, five to seven days; for mortality at 50 µg/cm2: 50 μg/cm2 on artificial diet, read-out: Rating CEW (% Control (or Mortality)); for mortality at 0.5 µg/cm2: 0.5 μg/cm2 on artificial diet, read-out: Rating CEW (% Control (or Mortality)), *Tested at 0.5 μg/cm2
Method in brief: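 Helicoverpa zea larvae in 128-well diet trays, held at 25 °C, 14:10 light-dark for five to seven days. Percent mortality scored per well and averaged over eight wells.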

[2] = system: Beet Armyworm (BAW) (Spodoptera exigua); assay: Bioassay on Beet Armyworm (BAW), 128-well diet tray assay; details: Spodoptera exigua, 168 h; 50 μg/cm2 on artificial diet, second instar larvae, five to seven days; read-out: Rating BAW (% Control (or Mortality))
Method in brief: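 Spodoptera exigua larvae on diet trays held 5–7 days at 25 °C, 14:10 light-dark. Percent mortality scored per well and averaged over eight wells.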

[3] = system: Yellow Fever Mosquito (YFM) (Aedes aegypti); details: about 1 day-old larvae, scored on mortality after 3 days
Protocol: Certain molecules disclosed in this document were tested against YFM using procedures described in the following paragraph. In the reporting of the results, the “YFM Rating Table” was used (See Table Section).
Master plates containing 400 μg of a molecule dissolved in 100 μL of dimethyl sulfoxide (DMSO) (equivalent to a 4000 ppm solution) are used. A master plate of assembled molecules contains 15 μL per well. To this plate, 135 μL of a 90:10 water:acetone mixture is added to each well. A robot (Biomek® NXP Laboratory Automation Workstation) is programmed to dispense 15 μL aspirations from the master plate into an empty 96-well shallow plate (“daughter” plate). There are 6 reps (“daughter” plates) created per master. The created daughter plates are then immediately infested with YFM larvae.
The day before plates are to be treated, mosquito eggs are placed in Millipore water containing liver powder to begin hatching (4 g. into 400 ml). After the daughter plates are created using the robot, they are infested with 220 μL of the liver powder/larval mosquito mixture (about 1 day-old larvae). After plates are infested with mosquito larvae, a non-evaporative lid is used to cover the plate to reduce drying. Plates are held at room temperature for 3 days prior to grading. After 3 days, each well is observed and scored based on mortality.

[4] = system: Green Peach Aphid (GPA) (Myzus persicae); assay: Bioassay on Green Peach Aphid (GPA), foliar spray on cabbage seedlings; details: Myzus persicae, 72 h; 200 ppm foliar spray on cabbage seedlings, graded after three days, Abbott corrected % control; read-out: Rating GPA (% Control (or Mortality))
Protocol: Certain molecules disclosed in this document were tested against GPA using procedures described in the following example. In the reporting of the results, the “GPA Rating Table” was used (See Table Section).
Cabbage seedlings grown in 3-inch pots, with 2-3 small (3-5 cm) true leaves, were used as test substrate. The seedlings were infested with 20-50 GPA (wingless adult and nymph stages) one day prior to chemical application. Four pots with individual seedlings were used for each treatment. Test compounds (2 mg) were dissolved in 2 mL of acetone/MeOH (1:1) solvent, forming stock solutions of 1000 ppm test compound. The stock solutions were diluted 5× with 0.025% Tween 20 in H2O to obtain the solution at 200 ppm test compound. A hand-held aspirator-type sprayer was used for spraying a solution to both sides of […] leaves until runoff. Reference plants (solvent check) were sprayed with the diluent only containing 20% by volume of acetone/MeOH (1:1) solvent. Treated plants were held in a holding room for three days at approximately 25° C. and ambient relative humidity (RH) prior to grading. Evaluation was conducted by counting the number of live aphids per plant under a microscope. Percent Control was measured by using Abbott's correction formula (W.S. Abbott, “A Method of Computing the Effectiveness of an Insecticide” J. Econ. Entomol. 18 (1925), pp. 265-267) as follows.
Corrected % Control=100*(X−Y)/X • where • X=No. of live aphids on solvent check plants and • Y=No. of live aphids on treated plants

SMILES | mortality at 50 µg/cm2 [1] | mortality at 50 µg/cm2 [2] | Rating YFM (% Control (or Mortality)) [3] | mortality at 0.5 µg/cm2 [1] | mortality at 200 ppm [4]
CCC(C)c1ccccc1N1C(=O)CS/C1=N\C(=O)Nc1ccc(-c2ncn(-c3ccc(OC(F)(F)F)cc3)n2)cc1 (stereo not shown) [Molecule A18, (Z)-1-(3-(2-(sec-butyl)phenyl)-4-oxothiazolidin-2-ylidene)-3-(4-(1-(4-(trifluoromethoxy)phenyl)-1H-1,2,4-triazol-3-yl)phenyl)urea] | 50 to 100% | 50 to 100% | A (80-100) | – | –
COc1ccc(N2C(=O)CS/C2=N\C(=O)Nc2ccc(-c3ncn(-c4ccc(OC(F)(F)F)cc4)n3)cc2)c(C)c1 [Molecule A110] | – | 50 to 100% | A (80-100) | 50 to 100% | 0%
Cc1ccccc1N1C(=O)CS/C1=N\C(=O)Nc1ccc(-c2ncn(-c3ccc(OC(F)(F)F)cc3)n2)cc1 [Molecule A65] | – | 50 to 100% | A (80-100) | 50 to 100% | –
Cc1ccccc1N/C(S)=N/C(=O)Nc1ccc(-c2ncn(-c3ccc(OC(F)(F)F)cc3)n2)cc1 [Molecule A80] | 50 to 100% | 50 to 100% | B (More than 0-Less than 80) | – | –
COc1ccc(N/C(O)=C/C(=O)Nc2ccc(-c3ncn(-c4ccc(OC(F)(F)F)cc4)n3)cc2)c(C(C)C)c1 [Molecule A34, (Z)-3-hydroxy-3-(2-isopropyl-4-methoxyphenylamino)-N-(4-(1-(4-(trifluoromethoxy)phenyl)-1H-1,2,4-triazol-3-yl)phenyl)acrylamide] | 50 to 100% | 50 to 100% | A (80-100) | – | 0%
Cc1cccc(C)c1N/C(=N/C(=O)Nc1ccc(-c2ncn(-c3ccc(C(F)(F)F)cc3)n2)cc1)SCOC(=O)C(C)C [Molecule A3, (E)-(N′-(2,6-Dimethylphenyl)-N-(4-(1-(4-(trifluoromethyl)phenyl)-1H-1,2,4-triazol-3-yl)phenylcarbamoyl)carbamimidoylthio) methyl isobutyrate] | 50 to 100% | 50 to 100% | A (80-100) | – | 0%
Cc1cccc(C)c1N1C(=O)C(C)(C)S/C1=N\C(=O)Nc1ccc(-c2ncn(-c3ccc(OC(F)(F)F)cc3)n2)cc1 [Molecule A126] | 50 to 100% | 50 to 100% | A (80-100) | – | 0%
Cc1cc(-c2ncn(-c3ccc(OC(F)(F)F)cc3)n2)ccc1NC(=O)/N=C1\SCC(=O)N1c1ccccc1C(C)C [Molecule A123, (Z)-1-(3-(2-isopropylphenyl)-4-oxothiazolidin-2-ylidene)-3-(2-methyl-4-(1-(4-(trifluoromethoxy)phenyl)-1H-1,2,4-triazol-3-yl)phenyl)urea] | – | 50 to 100% | A (80-100) | 50 to 100% | –
COc1cc(C)c(-n2c(C)cs/c2=N\C(=O)Nc2ccc(-c3ncn(-c4ccc(OC(F)(F)F)cc4)n3)cc2)c(C)c1 [Molecule A44] | 50 to 100% | 50 to 100% | A (80-100) | – | 0 to 80%
COc1ccc(N/C(=N\C(=O)Nc2ccc(-c3ncn(-c4ccc(OC(F)(F)F)cc4)n3)cc2)SCOC(=O)C(C)C)cc1 [Molecule A62] | 50 to 100% | 50 to 100% | A (80-100) | – | 0%
Cc1cc(-c2ncn(-c3ccc(OC(F)(F)F)cc3)n2)ccc1NC(=O)/N=C(\S)Nc1ccccc1C(C)C [Molecule A122] | – | 50 to 100% | A (80-100) | 50 to 100% | –
CCc1ccccc1N/C(S)=N/C(=O)Nc1ccc(-c2ncn(-c3ccc(OC(F)(F)F)cc3)n2)cc1 [Molecule A46] | 50 to 100% | 50 to 100% | A (80-100) | – | 0 to 80%
Cc1ccc(N2C(=O)CS/C2=N\C(=O)Nc2ccc(-c3ncn(-c4ccc(OC(F)(F)F)cc4)n3)cc2)c(Cl)c1 [Molecule A77] | – | 50 to 100% | B (More than 0-Less than 80) | 50 to 100% | –
CCCc1ccccc1N1C(=O)CS/C1=N\C(=O)Nc1ccc(-c2ncn(-c3ccc(OC(F)(F)F)cc3)n2)cc1 [Molecule A69] | – | 50 to 100% | A (80-100) | 50 to 100% | –
CC(C)c1cccc(Cl)c1N1C(=O)CS/C1=N\C(=O)Nc1ccc(-c2ncn(-c3ccc(OC(F)(F)F)cc3)n2)cc1 [Molecule A85] | – | 50 to 100% | A (80-100) | 50 to 100% | –
CCc1ccccc1N1C(=O)CS/C1=N\C(=O)Nc1ccc(-c2ncn(-c3ccc(OC(F)(F)F)cc3)n2)cc1 [Molecule A35] | 50 to 100% | 50 to 100% | A (80-100) | – | 0%
Cc1cccc(C)c1N/C(=N/C(=O)Nc1ccc(-c2ncn(-c3ccc(OC(F)(F)F)cc3)n2)cc1)SCOC(=O)C(C)C [Molecule A4, (E)-(N′-(2,6-Dimethylphenyl)-N-(4-(1-(4-(trifluoromethyoxy)phenyl)-1H-1,2,4-triazol-3-yl)phenylcarbamoyl)carbamimidoylthio)methyl isobutyrate] | 50 to 100% | 50 to 100% | A (80-100) | – | 0 to 80%
Cc1cccc(C)c1N/C(S)=C(\C#N)C(=O)Nc1ccc(-c2ncn(-c3ccc(OC(F)(F)F)cc3)n2)cc1 [Molecule A28, (Z)-2-Cyano-3-mercapto-3-((2,6-dimethylphenyl)amino)-N-(4-(1-(4-(trifluoromethoxy)phenyl)-1H-1,2,4-triazol-3-yl)phenyl)acrylamide] | 50 to 100% | 0% | D (No activity noticed in this bioassay) | – | –
Cc1cccc(C)c1N1C(=O)CS/C1=N\C(=O)Nc1ccc(-c2ncn(-c3ccc(OC(F)(F)F)cc3)n2)cc1 [Molecule A14, (Z)-1-(3-(2,6-dimethylphenyl)-4-oxothiazolidin-2-ylidene)-3-(4-(1-(4-(trifluoromethoxy)phenyl)-1H-1,2,4-triazol-3-yl)phenyl)urea] | 50 to 100% | 50 to 100% | A (80-100) | – | 0 to 80%
